Key:
Assay in all cases: area under concentration-response curve (viability) (AUC (a.u.)); higher = less active
Conditions in all cases: 48 h
CU-ACC1 = system: CU-ACC1
How it was run: (§1)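 Cells from three adrenocortical carcinoma lines were seeded at 500–1,000 cells/well in 5 µL medium in 1,536-well plates. Each library compound was added as 23 nL at 11 concentrations, and after 48 h CellTiter-Glo was added for 15 minutes at room temperature before reading luminescence. Plate-wise normalisation to vehicle and empty-well controls preceded curve fitting. AC50 and area under the curve were calculated only for inhibitory or non-responding curve classes.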

NCI-H295R = system: NCI-H295R
How it was run: as §1

CU-ACC2 = system: CU-ACC2
How it was run: as §1

CCc1c(C(=O)C(N)=O)c2c(OCC(=O)O)cccc2n1Cc1ccccc1
area under concentration-response curve (CU-ACC1): 572 | area under concentration-response curve (NCI-H295R): 550 | area under concentration-response curve (CU-ACC2): 599

CO[C@@H]1[C@@H](OC(N)=O)[C@@H](O)[C@H](OC2=CC=C3\C(=C(NC(=O)C4=CC=C([O-])C(=C4)CC=C(C)C)/C(=O)OC3=C2C)O)OC1(C)C
area under concentration-response curve (CU-ACC1): 535 | area under concentration-response curve (NCI-H295R): 539 | area under concentration-response curve (CU-ACC2): 531

CO[C@H]1/C=C/O[C@@]2(C)Oc3c(C)c(O)c4c(c3C2=O)C2=NC3(CCN(CC(C)C)CC3)NC2=C(NC(=O)/C(C)=C/C=C/[C@H](C)[C@H](O)[C@@H](C)[C@@H](O)[C@@H](C)[C@H](OC(C)=O)[C@@H]1C)C4=O
area under concentration-response curve (CU-ACC1): 491 | area under concentration-response curve (NCI-H295R): 530 | area under concentration-response curve (CU-ACC2): 607

OC1=CC2=C(C(=O)\C=C(/O2)C3=CC=CC=C3)C(=C1O)O
area under concentration-response curve (CU-ACC1): 458 | area under concentration-response curve (NCI-H295R): 489 | area under concentration-response curve (CU-ACC2): 462

COc1ccc(CC2c3cc(OC)c(OC)cc3CC[N+]2(C)CCC(=O)OCCCCCOC(=O)CC[N+]2(C)CCc3cc(OC)c(OC)cc3C2Cc2ccc(OC)c(OC)c2)cc1OC (centres undefined)
area under concentration-response curve (CU-ACC1): 449 | area under concentration-response curve (NCI-H295R): 474 | area under concentration-response curve (CU-ACC2): 494

COCC1(CO)C(=O)C2CCN1CC2 (centres undefined)
area under concentration-response curve (CU-ACC1): 443 | area under concentration-response curve (NCI-H295R): 468 | area under concentration-response curve (CU-ACC2): 513

CCOC(=O)[C@H]1O[C@@H]1C(=O)N[C@@H](CC(C)C)C(=O)NCCC(C)C
area under concentration-response curve (CU-ACC1): 566 | area under concentration-response curve (NCI-H295R): 527 | area under concentration-response curve (CU-ACC2): 589

N[C@@H](Cc1cc(I)c(Oc2cc(I)c(O)c(I)c2)c(I)c1)C(=O)O
area under concentration-response curve (CU-ACC1): 548 | area under concentration-response curve (NCI-H295R): 564 | area under concentration-response curve (CU-ACC2): 620

Cc1cccc(-c2nn(C(=S)Nc3ccccc3)cc2-c2ccnc3ccccc23)n1
area under concentration-response curve (CU-ACC1): 506 | area under concentration-response curve (NCI-H295R): 470 | area under concentration-response curve (CU-ACC2): 590

C#Cc1cccc(Nc2ncnc3cc4c(cc23)OCCOCCOCCO4)c1
area under concentration-response curve (CU-ACC1): 462 | area under concentration-response curve (NCI-H295R): 546 | area under concentration-response curve (CU-ACC2): 599

COc1ccc([C@@H]2CC(=O)c3c(O)cc(O[C@@H]4O[C@H](CO[C@@H]5O[C@@H](C)[C@H](O)[C@@H](O)[C@H]5O)[C@@H](O)[C@H](O)[C@H]4O)cc3O2)cc1O
area under concentration-response curve (CU-ACC1): 480 | area under concentration-response curve (NCI-H295R): 547 | area under concentration-response curve (CU-ACC2): 593

Nc1cc(COc2c(Cl)cc(C[C@H](N)C(=O)O)cc2Cl)c2oc(-c3ccccc3)nc2c1
area under concentration-response curve (CU-ACC1): 488 | area under concentration-response curve (NCI-H295R): 588 | area under concentration-response curve (CU-ACC2): 577

COc1ccccc1[C@H](c1cccc2ccccc12)[C@@](C)(C#N)C(=O)N1CCC(c2cccc(C(F)(F)F)c2)CC1
area under concentration-response curve (CU-ACC1): 566 | area under concentration-response curve (NCI-H295R): 587 | area under concentration-response curve (CU-ACC2): 665

Cc1cc(O)cc2c1[C@]1(C)CC[C@H]3C(C)(C)CCC[C@]3(C)[C@H]1C2
area under concentration-response curve (CU-ACC1): 53.6 | area under concentration-response curve (NCI-H295R): 89.9 | area under concentration-response curve (CU-ACC2): 190

CCOC\1=C(/C(=O)NC2=CC=C(OC3=C(Cl)C(=NC=C3)N)C(=C2)F)C(=O)N(\C=C1)C4=CC=C(F)C=C4
area under concentration-response curve (CU-ACC1): 522 | area under concentration-response curve (NCI-H295R): 530 | area under concentration-response curve (CU-ACC2): 578

COc1cc(N2CCC(O)CC2)ccc1Nc1cc(Nc2ccccc2[S+](=O)([O-])C(C)C)c2cc[nH]c2n1
area under concentration-response curve (CU-ACC1): 585 | area under concentration-response curve (NCI-H295R): 588 | area under concentration-response curve (CU-ACC2): 654

CCC(=O)NCC[C@@H]1CCc2ccc3c(c21)CCO3
area under concentration-response curve (CU-ACC1): 490 | area under concentration-response curve (NCI-H295R): 531 | area under concentration-response curve (CU-ACC2): 564

COC1=C(OC)C=C2CN(CCC3=CC=C(C=C3)[N]4N=NC(=N4)C5=CC(=C(OC)C=C5NC(=O)\C6=C\C(=O)C7=CC=CC=C7O6)OC)CCC2=C1
area under concentration-response curve (CU-ACC1): 735 | area under concentration-response curve (NCI-H295R): 688 | area under concentration-response curve (CU-ACC2): 654

COc1ccc(-c2cc(=O)c3c(O)cc(O)cc3o2)cc1O
area under concentration-response curve (CU-ACC1): 452 | area under concentration-response curve (NCI-H295R): 437 | area under concentration-response curve (CU-ACC2): 447

Cn1ncc2cc(-c3cnc(N)c(Cl)c3N3CCC4(CCNC4=O)CC3)ccc21
area under concentration-response curve (CU-ACC1): 475 | area under concentration-response curve (NCI-H295R): 536 | area under concentration-response curve (CU-ACC2): 484

O=c1oc2cc(O)ccc2s1
area under concentration-response curve (CU-ACC1): 502 | area under concentration-response curve (NCI-H295R): 503 | area under concentration-response curve (CU-ACC2): 482

S=P(N1CC1)(N1CC1)N1CC1
area under concentration-response curve (CU-ACC1): 496 | area under concentration-response curve (NCI-H295R): 562 | area under concentration-response curve (CU-ACC2): 590

CCC[C@@H]1C[C@@H](C(=O)N[C@@H]([C@H]2O[C@H](SC)[C@H](O)[C@@H](O)[C@H]2O)[C@H](C)Cl)N(C)C1
area under concentration-response curve (CU-ACC1): 527 | area under concentration-response curve (NCI-H295R): 541 | area under concentration-response curve (CU-ACC2): 458

O=C(O)C(=O)c1cn(Cc2ccccc2)c2ccc(-c3ccc(OC(F)(F)F)cc3)cc12
area under concentration-response curve (CU-ACC1): 474 | area under concentration-response curve (NCI-H295R): 489 | area under concentration-response curve (CU-ACC2): 489

Clc1ccc(-c2nc3sccn3c2/C=N/OCc2ccc(Cl)c(Cl)c2)cc1
area under concentration-response curve (CU-ACC1): 490 | area under concentration-response curve (NCI-H295R): 425 | area under concentration-response curve (CU-ACC2): 549

CN(C)CCc1c[nH]c2ccc(C[S+](=O)([O-])N3CCCC3)cc12
area under concentration-response curve (CU-ACC1): 490 | area under concentration-response curve (NCI-H295R): 513 | area under concentration-response curve (CU-ACC2): 612

COc1ccc2cccc(CCNC(C)=O)c2c1
area under concentration-response curve (CU-ACC1): 515 | area under concentration-response curve (NCI-H295R): 579 | area under concentration-response curve (CU-ACC2): 589

C[C@H](CCC(=O)O)[C@H]1CC[C@H]2[C@@H]3[C@@H](O)C[C@@H]4C[C@H](O)CC[C@]4(C)[C@H]3CC[C@]12C
area under concentration-response curve (CU-ACC1): 519 | area under concentration-response curve (NCI-H295R): 538 | area under concentration-response curve (CU-ACC2): 496

Nc1nc(OC(c2ccc(-c3cccc(F)c3)cc2)C(F)(F)F)cc(-c2ccc(C[C@H](N)C(=O)O)cc2)n1 (some centres undefined)
area under concentration-response curve (CU-ACC1): 546 | area under concentration-response curve (NCI-H295R): 555 | area under concentration-response curve (CU-ACC2): 519

C#Cc1cccc(Nc2ncnc3cc(OCCOC)c(OCCO)cc23)c1
area under concentration-response curve (CU-ACC1): 528 | area under concentration-response curve (NCI-H295R): 541 | area under concentration-response curve (CU-ACC2): 615

Clc1ccccc1CN1CCc2sccc2C1
area under concentration-response curve (CU-ACC1): 510 | area under concentration-response curve (NCI-H295R): 543 | area under concentration-response curve (CU-ACC2): 617

CN[C@H](CC(C)C)C(=O)N[C@H]1C(=O)N[C@@H](CC(N)=O)C(=O)N[C@H]2C(=O)N[C@H]3C(=O)N[C@H](C(=O)N[C@H](C(=O)O)c4cc(O)cc(O)c4-c4cc3ccc4O)[C@H](O)c3ccc(c(Cl)c3)Oc3cc2cc(c3O[C@@H]2O[C@H](CO)[C@@H](O)[C@H](O)[C@H]2O[C@H]2C[C@](C)(N)[C@H](O)[C@H](C)O2)Oc2ccc(cc2Cl)[C@H]1O
area under concentration-response curve (CU-ACC1): 589 | area under concentration-response curve (NCI-H295R): 614 | area under concentration-response curve (CU-ACC2): 676

C[S+](=O)([O-])c1cc(F)cc2c3c(n(Cc4ccc(Cl)cc4)c12)[C@@H](CC(=O)O)CC3
area under concentration-response curve (CU-ACC1): 536 | area under concentration-response curve (NCI-H295R): 544 | area under concentration-response curve (CU-ACC2): 613

O=C(O)CC(C(=O)O)N1C(=O)/C(=C2/C(=O)Nc3ccc(Br)cc32)SC1=S (centres undefined)
area under concentration-response curve (CU-ACC1): 569 | area under concentration-response curve (NCI-H295R): 567 | area under concentration-response curve (CU-ACC2): 593

N#Cc1ccnc(N2C(=O)CC[C@H]2C(=O)N(c2cncc(F)c2)C(C(=O)NC2CC(F)(F)C2)c2ccccc2Cl)c1 (some centres undefined)
area under concentration-response curve (CU-ACC1): 500 | area under concentration-response curve (NCI-H295R): 578 | area under concentration-response curve (CU-ACC2): 602

C[N]1C2=C(SC(=C2)[S+](C)[O-])C\3=C1C(=O)N(CC4=CC(=CC=C4)N)\N=C3 (centres undefined)
area under concentration-response curve (CU-ACC1): 363 | area under concentration-response curve (NCI-H295R): 468 | area under concentration-response curve (CU-ACC2): 511

CN(C)N(C)C(=O)[C@@]1(Cc2ccccc2)CCCN(C(=O)[C@@H](Cc2c[nH]c3ccccc23)NC(=O)C(C)(C)N)C1
area under concentration-response curve (CU-ACC1): 522 | area under concentration-response curve (NCI-H295R): 514 | area under concentration-response curve (CU-ACC2): 525

CCC(C)(Oc1ccc(C2(c3ccc(OC(C)(CC)C(=O)O)cc3)CCCCC2)cc1)C(=O)O (centres undefined)
area under concentration-response curve (CU-ACC1): 500 | area under concentration-response curve (NCI-H295R): 470 | area under concentration-response curve (CU-ACC2): 572

OC(=O)CNC(=O)\C1=C(/O)C2=CC=CC=C2N(CC3=CC=CC=C3)C1=O
area under concentration-response curve (CU-ACC1): 441 | area under concentration-response curve (NCI-H295R): 529 | area under concentration-response curve (CU-ACC2): 539

CNC(=O)CN1CCC(Oc2cc3c(Nc4cccc(Cl)c4F)ncnc3cc2OC)CC1
area under concentration-response curve (CU-ACC1): 501 | area under concentration-response curve (NCI-H295R): 570 | area under concentration-response curve (CU-ACC2): 572

CC(C)(N[S+](=O)([O-])c1ccc2c(Cl)cnc(NC(=N)N)c2c1)C(=O)O
area under concentration-response curve (CU-ACC1): 527 | area under concentration-response curve (NCI-H295R): 570 | area under concentration-response curve (CU-ACC2): 609

COc1cc([C@@H]2c3cc4c(cc3[C@@H](O)C3COC(=O)C32)OCO4)cc(OC)c1O (some centres undefined)
area under concentration-response curve (CU-ACC1): 500 | area under concentration-response curve (NCI-H295R): 511 | area under concentration-response curve (CU-ACC2): 559

N[S+](=O)([O-])NCCNc1nonc1/C(=N/O)Nc1ccc(F)c(Br)c1
area under concentration-response curve (CU-ACC1): 524 | area under concentration-response curve (NCI-H295R): 468 | area under concentration-response curve (CU-ACC2): 595
